Counter-ions that a name gives are not always drawn. Like-named read-outs stand apart in the source and are kept apart here.

What is called inhibition is the share of the control response that was lost under treatment.

The experiment concerns C. elegans. The experiment can be described thus: microbe, parasite or virus in culture. The conditions noted are these: Caenorhabditis elegans.
Where [1] appears, read: 0 h, read-out: Percentage of motility inhibition 0 h, Table S2, C. elegans SS assay, 110 μM, 0 h, averages of 4 data points.
Setting [2] is: 24 h, read-out: Percentage of motility inhibition 24 h, Table S2, C. elegans SS assay, 110 μM, 24 h, averages of 4 data points.
Setting [3] is: 0 h, read-out: Percentage of motility inhibition 0 h.
[4] abbreviates: 24 h, read-out: Percentage of motility inhibition 24 h.

On to `O=c1cc(-c2ccc(O)c(-c3c(O)cc(O)c4c(=O)cc(-c5ccc(O)cc5)oc34)c2)oc2cc(O)cc(O)c12` [Amentoflavone], for which the inhibition at 110 µM reads like this: under setting [1], 0%; under setting [2], 0%.
Turning to `CC(=O)O[C@H]1C(=O)[C@@]2(C)[C@H]([C@H](OC(=O)c3ccccc3)[C@]3(O)C[C@H](O)C(C)=C1C3(C)C)[C@]1(OC(C)=O)CO[C@@H]1C[C@@H]2O` [Baccatin III], the inhibition at 110 µM is, setting by setting: under setting [1], 0%; under setting [2], 0%.
With `C=CCc1ccc(O)c(-c2cc(CC=C)ccc2O)c1` [Magnolol], the inhibition at 110 µM amounted to 0% under setting [1] and 14% under setting [2].
For `COC(=O)C1=CO[C@@H](O)[C@@H]2C(CO)=CC[C@H]12` [Genipin], in that order: 0% and 0%.
`COc1ccc(Cc2cnc(N)nc2N)cc1OC` [Diaveridine]: the inhibition at 110 µM reads like this: under setting [1], 17%; under setting [2], 32%.
As to `O=c1ncnc2n([C@H]3O[C@@H](CO)[C@H](O)[C@@H]3O)[nH]cc1-2` (stereo in doubt) [Allopurinol riboside], the inhibition at 110 µM by setting is: under setting [1], 0%; under setting [2], 0%.
On to `Cc1[nH]ccc2c1[nH]c1cc(=O)ccc12` [Harmol], for which the inhibition at 110 µM by setting is: under setting [1], 0%; under setting [2], 0%.
For the molecule `Cc1cc(CCCOc2c(C)cc(-c3noc(C(F)(F)F)n3)cc2C)on1` [Pleconaril], the inhibition at 110 µM by setting is: under setting [1], 4%; under setting [2], 14%.
For the molecule `CC1(C)C(C=C(Cl)Cl)C1C(=O)OCc1cccc(Oc2ccccc2)c1` (stereo not shown) [Permethrin], the inhibition at 110 µM runs as follows: under setting [1], 9%; under setting [2], 7%.
For `N[C@H]1C(O)O[C@H](CO)[C@@H](O)[C@@H]1O` (stereo partly shown) [Glucosamine] the same measures were 8% and 4%.
On to `C[C@H](CC(=O)C[C@@H](C)[C@H]1C[C@H](O)[C@@]2(C)C3=C(C(=O)C[C@]12C)[C@@]1(C)CCC(=O)C(C)(C)[C@@H]1C[C@@H]3O)C(=O)O` [Ganoderic acid A], for which the inhibition at 110 µM under setting [1] came to 15% and the inhibition at 110 µM under setting [2] worked out at 6%.
For `CCCCC(CC)CN1CN(CC(CC)CCCC)CC(C)(N)C1` (stereo not shown) [Hexetidine], the inhibition at 110 µM reads like this: under setting [1], 46%; under setting [2], 39%.
On to `O=c1c(O[C@@H]2O[C@H](CO)[C@@H](O)[C@H](O)[C@H]2O)c(-c2ccc(O)cc2)oc2cc(O)cc(O)c12` [Astragalin], for which the inhibition at 110 µM reads like this: under setting [1], 1%; under setting [2], 1%.
`C[C@@]12CC[C@@H]3[C@@](CC[C@H]4[C@@]3(C)CCC[C@@]4(C)C(=O)O)(CC1=O)C2` [Isosteviol]: the inhibition at 110 µM runs as follows: under setting [1], 0%; under setting [2], 2%.
For `C=CCCCCCCCCC(=O)O` [10‐Undecenoic acid] the same measures were 60% and 67%.
For `CC(C)C12CCC(C)(CC1)O2` [1,4-Cineole], in that order: 21% and 35%.
In the case of `CN1[C@@H]2CC[C@H]1C[C@@H](OC(=O)[C@H](CO)c1ccccc1)C2` [L‐Hyoscyamine], the inhibition at 110 µM by setting is: under setting [3], 16%; under setting [4], 12%.
In the case of `O=C(N[C@H](CO)[C@H](O)c1ccc([N+](=O)[O-])cc1)C(Cl)Cl` [Chloramphenicol], the inhibition at 110 µM stood at 6% under setting [1] and 2% under setting [2].
For `CC(=O)Oc1cccc2c1C(=O)c1c(OC(C)=O)cc(C(=O)O)cc1C2=O` [Diacerein], in that order: 0% and 8%.
As for `CC1(C)S[C@@H]2[C@H](NC(=O)Cc3ccccc3)C(=O)N2[C@H]1C(=O)O` [Penicillin G s odium salt], the inhibition at 110 µM came out at 16% under setting [1] and 22% under setting [2].
For `COc1ccc([C@@H]2CC(=O)c3c(O)cc(O)cc3O2)cc1O` [Hesperetin] the same measures were 21% and 5%.
Consider `O=c1cc(-c2ccc(O)cc2)oc2cc(O)c(O)c(O)c12` [Scutellarein], for which the inhibition at 110 µM reads like this: under setting [3], 49%; under setting [4], 3%.
Turning to `C=C1CCC[C@]2(C)CC[C@@H](C(C)(C)O)C[C@@H]12` [Beta-Eudesmol], the inhibition at 110 µM is, setting by setting: under setting [1], 0%; under setting [2], 6%.
For `CCCCCCCCCCCCCCCCCCCCCCO` [1‐Docosanol], the inhibition at 110 µM reads like this: under setting [1], 33%; under setting [2], 25%.
For `CC[C@@]1(O)C(=O)OCc2c1cc1n(c2=O)Cc2cc3c(N)cccc3nc2-1` [9‐Aminocamptothecin], in that order: 0% and 2%.
As to `COc1ccc2c(c1)[nH]c1c(C)nccc12` [Harmine], the inhibition at 110 µM under setting [3] was found to be 36% and the inhibition at 110 µM under setting [4] amounted to 4%.
`COc1ccc2c(c1OC)CN(C)c1c-2ccc2cc3c(cc12)OCO3` [Dihydrochelerythrine]: the inhibition at 110 µM was 0% under setting [1] and 7% under setting [2].
For `O=C(O)CCC(=O)Nc1ccc(S(=O)(=O)Nc2nccs2)cc1` [Succinylsulfathiazole], in that order: 31% and 17%.
For `NNC(=O)c1ccncc1` [Isoniazid] the same measures were 26% and 27%.
Take `CC(=O)NC[C@H]1CN(c2ccc(N3CCSCC3)c(F)c2)C(=O)O1` [Sutezolid]: the inhibition at 110 µM is, setting by setting: under setting [1], 16%; under setting [2], 4%.
For `CC[C@H]1OC(=O)[C@H](C)[C@@H](O[C@H]2C[C@@](C)(OC)[C@@H](O)[C@H](C)O2)[C@H](C)[C@@H](O[C@@H]2O[C@H](C)C[C@H](N(C)C)[C@H]2O)[C@](C)(O)C[C@@H](C)/C(=N\OCOCCOC)[C@H](C)[C@@H](O)[C@]1(C)O` [Roxithromycin] the same measures were 22% and 4%.
For `COc1cc(C(=O)OCCCCNC(=N)N)cc(OC)c1O` [Leonurine] the same measures were 0% and 0%.
For `C[C@@H]1CC[C@]2(C(=O)O)CC[C@]3(C)C(=CC[C@@H]4[C@@]5(C)C[C@@H](O)[C@@H](O)C(C)(C)[C@@H]5CC[C@]43C)[C@@H]2[C@]1(C)O` [Euscaphic acid] the same measures were 18% and 27%.
`O=C(O)c1ccccc1` [Benzoic acid]: the inhibition at 110 µM is, setting by setting: under setting [3], 3%; under setting [4], 6%.
Turning to `CC1CCc2c(N3CCC(O)CC3)c(F)cc3c(=O)c(C(=O)O)cn1c23` (stereo not shown) [Nadifloxacin], the inhibition at 110 µM under setting [1] amounted to 0% and the inhibition at 110 µM under setting [2] amounted to 0%.
In the case of `C[C@]1(Cn2ccnn2)[C@H](C(=O)O)N2C(=O)C[C@H]2S1(=O)=O` [Tazobactam], the inhibition at 110 µM runs as follows: under setting [1], 16%; under setting [2], 21%.
For `CN1CCc2cc3c(cc2C1O)OCO3` (stereo not shown) [Hydrastinine], in that order: 1% and 4%.
For `C[C@@H]1O[C@@H](OC[C@H]2O[C@@H](Oc3cc(O)c4c(c3)O[C@H](c3ccc(O)cc3)CC4=O)[C@H](O)[C@@H](O)[C@@H]2O)[C@H](O)[C@H](O)[C@H]1O` [Narirutin], in that order: 39% and 19%.

The values above are taken from article PMC11855827, “High-Throughput Screening of Five Compound Libraries for Anthelmintic Activity and Toxicity Leads to the Discovery of Two Flavonoid Compounds” (International Journal of Molecular Sciences, 2025).
